Values belong to the compound of their own block, whether it stands above or below them. Activity calls are given as the source filed them.
Assays:
Aminopeptidase N = target: T1, Aminopeptidase N (Plasmodium falciparum FcB1/Columbia, UniProt O96935); test: malaria alanyl aminopeptidase activity blockers – biochemical, fluorogenic H-Leu-NHMec substrate, 1536-well (AID 1445); parameters: species or system Plasmodium falciparum 3D7, 3D7
T1 sequence (O96935 whole entry): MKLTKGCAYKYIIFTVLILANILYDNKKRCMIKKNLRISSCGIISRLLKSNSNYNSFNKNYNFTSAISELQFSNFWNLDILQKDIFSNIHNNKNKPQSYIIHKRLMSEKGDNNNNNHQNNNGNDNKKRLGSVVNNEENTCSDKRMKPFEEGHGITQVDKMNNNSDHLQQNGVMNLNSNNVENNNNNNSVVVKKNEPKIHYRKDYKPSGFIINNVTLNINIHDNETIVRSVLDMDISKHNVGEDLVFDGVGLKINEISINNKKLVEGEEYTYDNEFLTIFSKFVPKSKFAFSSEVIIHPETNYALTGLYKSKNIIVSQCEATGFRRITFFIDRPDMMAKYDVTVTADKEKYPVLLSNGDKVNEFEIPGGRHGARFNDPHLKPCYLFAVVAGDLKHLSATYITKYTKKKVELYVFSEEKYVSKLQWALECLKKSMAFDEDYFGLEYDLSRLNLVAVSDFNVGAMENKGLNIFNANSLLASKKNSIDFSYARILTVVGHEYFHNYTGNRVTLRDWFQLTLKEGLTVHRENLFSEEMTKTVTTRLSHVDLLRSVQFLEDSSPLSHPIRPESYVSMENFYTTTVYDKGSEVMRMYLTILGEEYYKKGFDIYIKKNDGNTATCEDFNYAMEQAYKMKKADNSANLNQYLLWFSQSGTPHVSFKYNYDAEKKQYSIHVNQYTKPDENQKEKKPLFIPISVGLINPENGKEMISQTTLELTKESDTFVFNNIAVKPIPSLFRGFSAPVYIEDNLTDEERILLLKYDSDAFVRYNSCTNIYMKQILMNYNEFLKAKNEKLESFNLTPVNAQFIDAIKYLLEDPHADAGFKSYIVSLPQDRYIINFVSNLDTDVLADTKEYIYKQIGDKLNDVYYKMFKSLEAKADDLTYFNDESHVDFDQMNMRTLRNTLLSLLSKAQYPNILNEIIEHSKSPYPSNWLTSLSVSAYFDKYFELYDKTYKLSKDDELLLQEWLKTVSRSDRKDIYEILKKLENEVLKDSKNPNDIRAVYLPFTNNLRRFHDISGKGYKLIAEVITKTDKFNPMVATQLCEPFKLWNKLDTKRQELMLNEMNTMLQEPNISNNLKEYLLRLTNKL

[1] = target: T2, Heat shock factor protein 1 (Mus musculus, UniProt P38532); test: enhancement of HSF1-driven luciferase signal – cell-based, NIH3T3, luminescence, dose retest, confirmation (AID 435004); type: functional;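 note: stress induced by proteasome inhibitor MG132 added 30 min after compound; luciferase reporter driven by HSF1 response element in NIH3T3 cells; actives raise luminescence as potentiators of the MG132 stress response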
T2 sequence (P38532 whole entry): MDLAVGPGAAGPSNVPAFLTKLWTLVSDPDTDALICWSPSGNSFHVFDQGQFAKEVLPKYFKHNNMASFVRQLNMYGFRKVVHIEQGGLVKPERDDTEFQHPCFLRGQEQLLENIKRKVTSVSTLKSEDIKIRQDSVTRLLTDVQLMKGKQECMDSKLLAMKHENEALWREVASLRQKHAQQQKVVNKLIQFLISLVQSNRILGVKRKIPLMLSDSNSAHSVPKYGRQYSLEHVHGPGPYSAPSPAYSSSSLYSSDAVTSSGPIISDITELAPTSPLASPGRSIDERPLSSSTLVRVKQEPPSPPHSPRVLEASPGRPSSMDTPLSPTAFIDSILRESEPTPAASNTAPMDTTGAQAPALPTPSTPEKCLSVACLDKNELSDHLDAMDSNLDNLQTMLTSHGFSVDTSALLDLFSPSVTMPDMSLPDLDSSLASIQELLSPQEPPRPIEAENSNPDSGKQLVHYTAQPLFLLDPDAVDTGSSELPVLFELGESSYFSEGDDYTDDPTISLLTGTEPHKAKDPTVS

Estrogen receptor = target: T3, Estrogen receptor (Homo sapiens, UniProt P03372);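 note: potency for inhibiting coactivator peptide recruitment to the receptor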
T3 sequence (P03372 whole entry): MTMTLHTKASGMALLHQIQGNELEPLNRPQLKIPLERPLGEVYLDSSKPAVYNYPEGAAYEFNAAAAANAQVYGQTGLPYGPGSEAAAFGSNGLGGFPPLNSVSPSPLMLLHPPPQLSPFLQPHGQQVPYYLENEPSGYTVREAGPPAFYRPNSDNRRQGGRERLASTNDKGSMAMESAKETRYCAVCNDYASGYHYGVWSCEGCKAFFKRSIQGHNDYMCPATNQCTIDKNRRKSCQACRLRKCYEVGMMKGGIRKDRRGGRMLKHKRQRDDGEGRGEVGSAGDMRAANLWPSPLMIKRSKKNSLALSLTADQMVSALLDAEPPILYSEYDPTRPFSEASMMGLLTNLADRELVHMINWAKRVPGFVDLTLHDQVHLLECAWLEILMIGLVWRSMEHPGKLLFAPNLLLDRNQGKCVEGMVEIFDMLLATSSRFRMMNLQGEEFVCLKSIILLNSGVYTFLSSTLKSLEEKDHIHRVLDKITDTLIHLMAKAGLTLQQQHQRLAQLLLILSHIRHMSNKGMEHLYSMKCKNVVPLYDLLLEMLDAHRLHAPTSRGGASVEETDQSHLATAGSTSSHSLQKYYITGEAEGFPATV

Estrogen receptor beta = Estrogen receptor beta (Homo sapiens, UniProt Q92731);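 note: recombinant ER-beta bound to coactivator SRC1 peptide in presence of estradiol agonist; inhibitors block coactivator peptide binding and lower the FRET signal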
Estrogen receptor beta, sequence (Q92731 whole entry): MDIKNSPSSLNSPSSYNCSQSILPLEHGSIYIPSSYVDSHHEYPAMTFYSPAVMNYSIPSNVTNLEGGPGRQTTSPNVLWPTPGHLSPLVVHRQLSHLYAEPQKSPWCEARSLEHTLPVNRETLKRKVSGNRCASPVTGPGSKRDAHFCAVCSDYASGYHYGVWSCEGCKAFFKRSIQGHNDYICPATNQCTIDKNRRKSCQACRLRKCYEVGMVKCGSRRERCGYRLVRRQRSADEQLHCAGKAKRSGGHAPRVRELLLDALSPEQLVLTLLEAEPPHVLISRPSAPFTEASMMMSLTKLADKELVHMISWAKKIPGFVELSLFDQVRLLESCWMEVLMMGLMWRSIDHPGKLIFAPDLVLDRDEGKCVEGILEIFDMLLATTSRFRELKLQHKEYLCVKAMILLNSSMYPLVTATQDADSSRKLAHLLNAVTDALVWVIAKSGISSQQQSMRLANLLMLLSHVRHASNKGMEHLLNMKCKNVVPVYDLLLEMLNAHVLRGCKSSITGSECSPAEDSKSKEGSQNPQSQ

Trypsin = Trypsin (Sus scrofa, UniProt P00761); test: trypsin protease activity blockade – biochemical, quenched peptide fluorescence, cherry-pick, selectivity assay for Rce1 protease inhibitor project, dose response (AID 488789)
Trypsin, sequence (P00761 whole entry): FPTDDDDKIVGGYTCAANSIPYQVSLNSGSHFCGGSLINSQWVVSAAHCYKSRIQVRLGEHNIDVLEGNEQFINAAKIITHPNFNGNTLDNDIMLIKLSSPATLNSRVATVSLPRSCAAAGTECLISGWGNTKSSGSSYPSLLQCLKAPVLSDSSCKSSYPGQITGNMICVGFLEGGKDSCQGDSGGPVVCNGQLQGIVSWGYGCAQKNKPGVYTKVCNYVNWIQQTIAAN

Cytochrome P450 2C9 = Cytochrome P450 2C9 (Homo sapiens, UniProt P11712); conditions: Potency
Cytochrome P450 2C9, sequence (P11712 whole entry): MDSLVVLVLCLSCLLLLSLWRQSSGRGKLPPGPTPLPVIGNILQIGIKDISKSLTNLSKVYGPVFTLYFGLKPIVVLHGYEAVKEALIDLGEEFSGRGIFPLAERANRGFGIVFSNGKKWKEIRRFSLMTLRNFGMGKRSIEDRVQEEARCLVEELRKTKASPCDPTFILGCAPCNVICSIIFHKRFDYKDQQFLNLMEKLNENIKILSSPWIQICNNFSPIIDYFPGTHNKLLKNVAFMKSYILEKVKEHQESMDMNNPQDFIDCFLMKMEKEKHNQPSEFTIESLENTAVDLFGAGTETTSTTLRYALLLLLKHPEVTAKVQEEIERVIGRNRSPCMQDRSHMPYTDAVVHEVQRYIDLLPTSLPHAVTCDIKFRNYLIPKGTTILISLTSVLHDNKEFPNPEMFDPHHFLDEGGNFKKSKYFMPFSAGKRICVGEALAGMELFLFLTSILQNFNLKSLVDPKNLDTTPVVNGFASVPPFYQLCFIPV

[2] = target: DNA dC->dU-editing enzyme APOBEC-3A (Homo sapiens, UniProt P31941); test: Dose Response confirmation of small molecule APOBEC3A DNA Deaminase Inhibitors via a fluorescence-based single-stranded DNA deaminase assay. [Related pubchem assays (depositor defined):AID493011, AID493024]; type: functional
DNA dC->dU-editing enzyme APOBEC-3A, sequence (P31941 whole entry): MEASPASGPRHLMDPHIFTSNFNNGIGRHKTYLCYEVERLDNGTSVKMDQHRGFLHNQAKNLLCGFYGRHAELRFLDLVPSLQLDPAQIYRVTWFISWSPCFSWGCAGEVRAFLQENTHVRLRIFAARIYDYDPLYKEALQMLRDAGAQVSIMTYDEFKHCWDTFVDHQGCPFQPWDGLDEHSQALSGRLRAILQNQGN

[3] = target: DNA dC->dU-editing enzyme APOBEC-3G (Homo sapiens, UniProt Q9HC16); type: functional;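 note: Dose-response counterscreen measuring inhibition of APOBEC3G DNA deaminase activity, run while confirming APOBEC3A inhibitors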
DNA dC->dU-editing enzyme APOBEC-3G, sequence (Q9HC16 whole entry): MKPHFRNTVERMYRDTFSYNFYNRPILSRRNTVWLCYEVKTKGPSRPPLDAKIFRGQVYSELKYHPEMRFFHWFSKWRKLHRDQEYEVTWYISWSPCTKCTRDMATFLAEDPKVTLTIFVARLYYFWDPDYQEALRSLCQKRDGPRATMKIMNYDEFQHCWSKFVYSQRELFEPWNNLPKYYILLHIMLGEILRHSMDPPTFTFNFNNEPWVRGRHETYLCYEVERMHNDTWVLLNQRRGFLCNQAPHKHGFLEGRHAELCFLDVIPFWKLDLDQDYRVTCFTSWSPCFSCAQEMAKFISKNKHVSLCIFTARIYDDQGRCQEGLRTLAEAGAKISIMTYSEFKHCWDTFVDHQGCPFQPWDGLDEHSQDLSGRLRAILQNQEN

[4] = target: Glyceraldehyde-3-phosphate dehydrogenase (Homo sapiens, UniProt P04406)
Glyceraldehyde-3-phosphate dehydrogenase, sequence (P04406 whole entry): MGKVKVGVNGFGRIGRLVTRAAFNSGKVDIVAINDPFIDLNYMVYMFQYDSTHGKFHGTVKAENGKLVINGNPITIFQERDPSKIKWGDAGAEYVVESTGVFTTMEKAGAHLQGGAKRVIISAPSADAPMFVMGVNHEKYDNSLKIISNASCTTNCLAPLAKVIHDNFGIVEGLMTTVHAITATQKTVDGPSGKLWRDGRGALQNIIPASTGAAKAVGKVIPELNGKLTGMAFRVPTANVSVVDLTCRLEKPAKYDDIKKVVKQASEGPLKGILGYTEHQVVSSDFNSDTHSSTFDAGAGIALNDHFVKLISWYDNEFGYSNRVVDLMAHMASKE

[5] = target: T4, Alkaline phosphatase, tissue-nonspecific isozyme (Homo sapiens, UniProt P05186); test: potency against alkaline phosphatase TNAP – biochemical, luminescent, dose response, SAR follow-up (AID 1056)
T4 sequence (P05186 whole entry): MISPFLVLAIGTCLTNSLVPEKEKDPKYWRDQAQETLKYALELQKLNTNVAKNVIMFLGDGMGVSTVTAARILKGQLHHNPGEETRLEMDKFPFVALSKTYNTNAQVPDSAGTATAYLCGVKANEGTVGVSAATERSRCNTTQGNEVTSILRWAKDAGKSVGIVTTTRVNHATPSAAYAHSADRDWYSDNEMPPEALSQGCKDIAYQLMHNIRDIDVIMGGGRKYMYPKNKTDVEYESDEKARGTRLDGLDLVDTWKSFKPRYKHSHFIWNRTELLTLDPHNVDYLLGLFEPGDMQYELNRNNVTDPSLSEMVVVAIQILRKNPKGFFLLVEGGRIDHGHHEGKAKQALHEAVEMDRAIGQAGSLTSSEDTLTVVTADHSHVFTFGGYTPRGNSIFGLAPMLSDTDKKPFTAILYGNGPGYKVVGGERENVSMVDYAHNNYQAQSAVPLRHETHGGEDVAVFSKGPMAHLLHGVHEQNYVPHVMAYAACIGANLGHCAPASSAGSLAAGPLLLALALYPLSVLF

SMILES: Cc1ccc(S(=O)(=O)NNC(=O)c2sc3nc(C)cc(C)c3c2-n2cccc2)cc1
IC50 (Aminopeptidase N): 26.9 µM (active)
EC50 [1]: > 260 µM (inactive)

SMILES: CC(C)C[C@@H](CC(=O)N[C@H](CC(=O)N[C@@H]1CCCC[C@H]1C(=O)N[C@H](CC(=O)N[C@@H](CCC(=O)O)CC(=O)O)Cc1ccccc1)C(C)C)NC(=O)[C@@H]1CNCC[C@H]1N
AC50 (Cytochrome P450 2C9): 31.6 µM (inconclusive)

SMILES: CNC(=O)/C(C#N)=C\c1ccc(CNS(=O)(=O)c2ccc(Cl)cc2)o1
IC50 [2]: 3.02 µM (active)
IC50 [3]: 2.81 µM (active)

SMILES: CC(C)C[C@@H](CC(=O)N[C@@H](CCCN)CC(=O)N[C@@H]1CCNC[C@H]1C(=O)N[C@H](CC(=O)N[C@@H](CCC(=O)O)CC(=O)O)CC(C)C)NC(=O)[C@@H]1CNCC[C@H]1N
AC50 (Cytochrome P450 2C9): 39.8 µM (inconclusive)

SMILES: CC(C)C(CO)N1CCN(Cc2ccccc2)CCC1=O (stereo not drawn)
IC50 [2]: 8.79 µM (active)
IC50 [3]: 10.1 µM (active)

SMILES: CC(C)C[C@@H](CC(=O)N[C@@H](CCC(=O)O)CC(=O)O)NC(=O)[C@@H]1CCCC[C@H]1NC(=O)C[C@@H](NC(=O)C[C@H](CO)NC(=O)[C@@H]1CNCC[C@H]1N)C(C)C
AC50 (Cytochrome P450 2C9): 31.6 µM (inconclusive)

Second part, the compound after the results:

IC50 (Estrogen receptor): 13.4 µM (active)
IC50 (Estrogen receptor beta): 16.8 µM (active)
SMILES: O=C(Cc1cccs1)Nc1ccccn1

AC50 (Trypsin): 8.06 µM (active)
SMILES: Cc1cc2nn(-c3cccc4ccccc34)nc2cc1NC(=O)c1cccs1

IC50 (Aminopeptidase N): 43.3 µM (active)
SMILES: COc1ccc(-c2[nH]nc3c2C2(C(=O)N(CC(=O)O)c4ccccc42)C(C#N)=C(N)O3)cc1OC (stereo not drawn)

IC50 (Aminopeptidase N): 8.94 µM (active)
SMILES: O=C(O)COc1ccc(/C=N/n2c(COc3ccccc3)nc3ccccc3c2=O)cc1

IC50 [4]: > 100 µM (not active)
IC50 [5]: > 100 µM (inactive)
SMILES: Cc1nc(-c2cccnc2)c[nH]1

IC50 [4]: > 100 µM (not active)
IC50 [5]: > 100 µM (inactive)
SMILES: Cc1ccc(-c2ccc(C(=O)O)[nH]2)cc1

Reference: ChEMBL document CHEMBL1201862, “PubChem BioAssay data set” (2004)
